{"source": "patent US8821568B2", "about": "“Implant modified with non-hydroxylated vitamin D precursors” (Numat Biomedical S.L., priority 2008, dated 2014)", "key": {"[1]": {"assay": "HPLC quantification of 7-DHC and vitamin D3 on coated substrates before and after UV irradiation", "assay_type": "physicochemical", "conditions": "for m7-DHC (%): 100* m7-DHC/m7-DHC^0; for ηD3 (Vit D3 product yield): moles D3 after vs moles 7-DHC before irradiation", "experimental": "Substrates (polystyrene, 96 well plate; or titanium, polished titanium disks, 6.2 mm diameter, 2 mm height, inserted in a 96 well plate) were covered with 0.2 nmol of 7-DHC and Vitamin E (7-DHC: VitE=20:1, m:m) by dropping 10 μl of a 7-DHC/VitE solution in absolute ethanol. After leaving the solvent to evaporate for 15 min, samples were UV irradiated for 15 min at 302 nm. The amounts of 7-DHC and D3 present in the surfaces were quantified by HPLC. Results were compared with substrates without Vit E and with non-irradiated surfaces. Pure ethanol was used as control for all groups. Sunlight exposure was avoided for all surfaces.\nThe coating of each surface was extracted by adding 100 μl of ‘methanol/acetonitrile/tetrahydrofurane/water’ (67:16:2:15, v:v) to each well and shaking the plate for 2 min at 20 rpm. The content of three replicate wells was mixed to give a sample of ≈300 μl. An aliquot of 100 μl of the sample was injected in the HPLC system. Two replicate samples were prepared and analyzed for each group.\nThe analysis were carried out using a Waters liquid chromatographic system (Milford, Mass., USA), equipped with a refrigerated automatic injector WISP700 and a 600 pump system, connected to a Waters 996 photodiode array (PDA) detector. The software Empower was used for instrument control and data analysis. Detection was carried out at 282 nm.\nA Nova Pak C18 column (Waters) was used to separate sample components before detection. The column temperature was set to 30° C. Two solvents, A: ‘methanol/acetonitrile/tetrahydrofurane/water (67:16:2:15, v:v), and B: ‘methanol/acetonitrile/tetrahydrofurane’ (75:20:5, v:v) were used in gradient elution mode as the mobile phase. Solvents A and B were vacuum-filtered through a Nylon membrane (0.45 μm pore diameter) and degassed before use. The mobile phase flow rate was 1 ml·min^−1. The binary gradient used was as follows: from 5% B to 90% B in three minutes, held for 9.5 min at 90% B, from 90% B to 5% B in one minute and equilibrated between injections at the initial conditions for 5 min (total run time=15 min+5 min equilibration between injections).\nQuantification was performed by integration of the peak area of the corresponding analyte and interpolation of the peak area in 7-DHC or Vit D3 standard curves."}, "[2]": {"system": "MC3T3-E1 cells", "assay": "LDH activity (cell viability) on coated titanium implants", "assay_type": "cell-based, mouse", "experimental": "To treat implant surfaces, 10 μl of each dilution treatment were left on the surfaces and were allowed to air-dry for 15 min in the sterile flow bench. For UV-irradiation, a UV lamp of 302 nm was used at an intensity of irradiation ca. 6 mW/cm^2 during several irradiation times.\nTo test the effect of the surface modification, 96-well plates were used. Ti disks were placed into the wells and treatments and UV-activation were performed over there. Cells grown onto untreated polystyrene tissue culture plastic (TCP) were added as a control for all the experiments. Cells were seeded at a density of 30,000 cells/cm^2 and they were maintained in α-MEM supplemented with 10% FCS and antibiotics. […] Cells were harvested after two days of culture using Trizol reagent (Roche Diagnostics, Mannheim, Germany), to analyze gene expression of several osteoblast differentiation markers and enzymes involved in vitamin D synthesis using real-time RT-PCR. […]\n(§1) Lactate dehydrogenase (LDH) activity in the culture media was used as an index of cell death. LDH activity was determined spectrophotometrically after 30 min incubation at 25° C. of 50 μl of culture and 50 μl of the reaction mixture by measuring the oxidation of NADH at 490 nm in the presence of piruvate following the manufacturer's protocol (Cytotoxicity Detection Kit (LDH), Roche Diagnostics, Mannheim, Germany). […]"}, "[3]": {"system": "MC3T3-E1 cells", "assay": "LDH activity (cytotoxicity) of cells on treated tissue culture plastic wells", "assay_type": "cell-based, mouse", "conditions": "TCP wells; after 24 hours; UV-treated (302 nm, 30 min); higher dose (20 nmols); compared to low control", "experimental": "To treat tissue culture plastic (TCP) wells, 10 μl of each dilution treatment were left on the surfaces and were allowed to air-dry for 15 min in the sterile flow bench. For UV-irradiation, a UV lamp of 302 nm was used at an intensity of irradiation of 6 mW/cm^2 (UVP, Upland, Calif., USA) during 30 minutes. Treated surfaces were immediately used for cell culture experiments.\nTo test the effect of the different treatments onto the plastic wells, 96-well plates made of polystyrene were used and the treatments with 7-DHC performed directly onto them. Cells grown onto untreated TCP were added as a control for all the experiments. Cells were seeded at a density of 30,000 cells/cm^2 and they were maintained in α-MEM supplemented with 10% FCS and antibiotics. […]\nas §1"}, "[4]": {"conditions": "Polystyrene, irradiated, UV 302 nm 15 min"}, "[5]": {"conditions": "Titanium, irradiated, UV 302 nm 15 min"}}, "data": [{"smiles": "CC(C)CCC[C@@H](C)[C@H]1CC[C@H]2C3=CC=C4C[C@@H](O)CC[C@]4(C)[C@H]3CC[C@]12C", "note": "[7-DHC, 7-dehydrocholesterol]", "values": [{"measurement": "m7-DHC", "setting": "[1]; [4]", "result": "29.2 ± 2.0", "unit": "ng/well"}, {"measurement": "mD3", "setting": "[1]; [4]", "result": "11.8 ± 0.4", "unit": "ng/well"}, {"measurement": "m7-DHC (%)", "setting": "[1]; [4]", "result": 29, "unit": "%"}, {"measurement": "ηD3 (Vit D3 product yield)", "setting": "[1]; [4]", "result": "13.1 ± 0.4", "unit": "%"}, {"measurement": "m7-DHC", "setting": "[1]; Polystyrene, non irradiated", "result": "90.1 ± 2.9", "unit": "ng/well"}, {"measurement": "m7-DHC (%)", "setting": "[1]; Polystyrene, non irradiated", "result": 88, "unit": "%"}, {"measurement": "m7-DHC", "setting": "[1]; [5]", "result": "42.1 ± 3.4", "unit": "ng/well"}, {"measurement": "mD3", "setting": "[1]; [5]", "result": "16.4 ± 0.7", "unit": "ng/well"}, {"measurement": "m7-DHC (%)", "setting": "[1]; [5]", "result": 39, "unit": "%"}, {"measurement": "ηD3 (Vit D3 product yield)", "setting": "[1]; [5]", "result": "16.4 ± 0.7", "unit": "%"}, {"measurement": "m7-DHC", "setting": "[1]; Titanium, non irradiated", "result": "99.9 ± 3.0", "unit": "ng/well"}, {"measurement": "m7-DHC (%)", "setting": "[1]; Titanium, non irradiated", "result": 92, "unit": "%"}, {"measurement": "Cytotoxic effect", "setting": "[2]; Ti implants treated and UV-irradiated", "result": "No cytotoxic effect"}, {"measurement": "Cell viability (LDH activity)", "setting": "[2]; Ti implants, 0.2 nmols, 24 h, UV-activated 5 to 10 minutes, compared to negative control (TCP)", "result": "protective effects"}, {"measurement": "Cytotoxicity (LDH activity in culture media)", "setting": "[3]", "result": "toxic effect"}]}]}
